Data from US4973675A, “Hybrid nitrosoureidoanthracyclines having antitumor activity” (University of Tennessee Research Center, priority 1989, dated 1990).
pIC50: −log10 of the molar value. Where “and” joins values, the source holds several entries; their conditions need not be identical. Identical values can stand only once. Entries after “also recorded” stand apart in the source; their conditions may differ.

Columns and labels:
[1] = system: murine P388/adriamycin-resistant leukemia; assay: In vivo antitumor activity vs. murine P388/adriamycin-resistant leukemia (P388/ADR); conditions: P388/ADR in vivo, lack of response confirmed
Excerpt: Assays were run essentially according to the established protocols of the U.S. National Cancer Institute (Geran et al., 1972 "Protocols for Screening Chemical Agents and Natural Products Against Animal Tumors and Other Biological Systems" (3rd Ed.), Cancer Chemotherapy Rep. [3]33, 1-103.), with the test agent given at 3-5 incremental dose levels in each screening experiment and with median survival of treated groups referenced against data for untreated controls.
*B6D2F1 males; 1 × 10^6 tumor cell inoculum ip day 0; treatment

[2] = system: plasmid PC15 supercoiled DNA; assay: DNA unwinding assay (interference with DNA topoisomerase I-mediated unwinding; drug-DNA intercalation); format: biochemical
murine L1210 lymphocytes = assay: DNA alkaline elution filter assay, DNA damage in murine L1210 lymphocytes; format: cell-based
Excerpt: (§1) By means of the DNA alkaline elution filter assay technique, it is possible to assess the nature of damage induced in DNA by exposure to drugs and other agents. Depending on the assay conditions, DNA lesions can be quantified as direct strand breaks, DNA-DNA interstrand crosslinks, and protein-associated strand breaks and crosslinks. The action of akylating-type drugs on DNA typically results in a predominant formation of direct DNA single-strand breaks and DNA-DNA crosslinks. DNA intercalating agents show a preponderance of protein-associated DNA damage, detectable as protein-associated single-strand breaks and DNA-protein crosslinks.
(§2) The nature of nitrosoureidoanthracycline-induced DNA damage in murine L1210 and human CLL lymphocytes was assessed by means of the alkaline elution filter technique. Murine L1210 leukemic lymphocytes, like P388/S lymphocytes, are known to contain high levels of topoisomerase II.
(§3) *All concentrations 1 μM, 1hr incubation. Each entry represents the
(§4) mean of at least two experiments, frequency per 10^6 nucleotides;
(§5) statistically significant increase above background underlined. DB, direc
(§6) (nonenzymatic) DNA breaks; PAB, proteinassociated DNA cleavage; DDCL,
(§7) interstrand DNA crosslinks; DPCL, DNAprotein crosslinks.

[3] = system: human CEM leukemic lymphocytes; assay: Growth inhibition of human CEM leukemic lymphocyte suspension cultures, 48 h continuous drug exposure (ID50); format: cell-based; conditions: Homo sapiens, Lymphocyte; suspension culture, 48 hr continuous drug exposure (Table 3); read-out: CEM, ID50 (50% growth-inhibitory concentration)
Protocol: (§8) Culture and bioassay conditions were as described in Cancer Chemotherapy Pharmacology 20:277 (1987) "Comparative Effects of Adriamycin and DNA-nonbinding Analogues on DNA, RNA, and Protein Synthesis in Vitro", Israel et al., except that cell counts were determined by hemocytometer rather than by automated cell counting.

[4] = system: murine P388/adriamycin-resistant leukemia; conditions: Johnson et al. (1976); cited from earlier work
human CLL lymphocytes = assay: DNA alkaline elution filter assay, DNA damage in human CLL lymphocytes; format: cell-based
Excerpt: as §1, §2, §3, §4, §5, §6, §7
B-cell type lymphocytes freshly obtained from patients with chronic lymphocytic leukemia (CLL) show undetectable levels of topoisomerase II.

murine P388 leukemia = conditions: optimal dose 3.0 mg/kg, this protocol; cited from earlier work
[5] = system: murine L1210 leukemia cells; assay: Clonogenic assay with cultured murine L1210 leukemia cells, 1 h drug exposure (LD90); format: cell-based; conditions: Mus musculus, L1210; 1 hr drug exposure; read-out: L1210 LD90 (dose killing 90% of clonogens)
Protocol: as §8
+Dose killing 90% of clonogens, 1hr. drug exposure.

DNA topoisomerase II = assay: Drug-stimulated topoisomerase II-mediated DNA cleavage assay (end-labeled PMC41 DNA); format: biochemical
Excerpt: FIGS. 5A and 5B are a photographic reproduction of the results of drug-stimulated topoisomerase II-mediated DNA cleavage assays performed on various compounds, including compounds of the present invention.
DNA intercalation is a necessary but not a sufficient requirement for DNA topoisomerase II-mediated DNA cleavage. Accordingly, determination of drug-induced enzyme inhibition requires direct assay with isolated topoisomerase II. These assays involve determination of drug-enhanced topoisomerase II-mediated cleavage of PMC41 DNA appropriately end-labeled with [α-^32 P]dATP. As better seen in FIG. 5B, lane B, purified topoisomerase II, under the assay conditions, causes fragmentation of the DNA (background cleavage), as indicated by the radioautographic appearance of bands of cleaved DNA having differing mass values.

[6] = L1210, 1 μM, 1 hr incubation, 0 hr after treatment
[7] = CLL, 1 μM, 1 hr incubation, 0 hr after treatment

COc1cccc2c1C(=O)c1c(O)c3c(c(O)c1C2=O)C[C@@](O)(C(=O)CO)C[C@@H]3O[C@H]1C[C@H](N)[C@H](O)[C@H](C)O1 [Adriamycin, adriamycin, reference compound]
increase in life span [1]: 0%
relative strength of drug-DNA intercalation (arbitrary scale) ([2]; 0 = no intercalation, 9 = very strong intercalation): 7
interference with topoisomerase I-mediated conversion of supercoiled DNA / intercalation ([2]; 4 concentrations, 125-fold range): concentration-dependent ability to interfere with the conversion of supercoiled DNA to relaxed forms; also recorded: ability of increasing concentrations of adriamycin (positive control) to interfere with the conversion of supercoiled DNA to relaxed forms
pattern of DNA damage (murine L1210 lymphocytes; L1210): significant amounts of protein-associated single-strand breaks, without producing much in the way of direct strand breaks and DNA-DNA interstrand cross-links
DB, direct (nonenzymatic) DNA breaks (murine L1210 lymphocytes; [6]): -0.1 frequency per 10^6 nucleotides
DD-CL, interstrand DNA crosslinks (murine L1210 lymphocytes; [6]): 0.1 frequency per 10^6 nucleotides
pIC50 [3]: 7.26
in vivo sensitivity of P388/ADR [4]: insensitive to adriamycin in vivo
pattern of DNA damage (human CLL lymphocytes; CLL B-cell lymphocytes): cannot be detected in these cells to any significant level
DB, direct (nonenzymatic) DNA breaks (human CLL lymphocytes; [7]): 0.1 frequency per 10^6 nucleotides
DD-CL, interstrand DNA crosslinks (human CLL lymphocytes; [7]): 0.0 frequency per 10^6 nucleotides
DP-CL, DNA-protein crosslinks (human CLL lymphocytes; [7]): 0.1 frequency per 10^6 nucleotides
PAB, protein-associated DNA cleavage (human CLL lymphocytes; [7]): 0.1 frequency per 10^6 nucleotides
longterm survivors, historical results (murine P388 leukemia): infrequent longterm survivors
IC90 [5]: 310 nM
enhancement of topoisomerase II-mediated DNA cleavage (DNA topoisomerase II; 625-fold concentration range): at low concentrations adriamycin enhances DNA fragmentation
concentration at which background cleavage is eliminated (DNA topoisomerase II; and higher): ≥ 4.6 μM and ≥ 2.5 μg/ml
